# Measured values reported in PMC8397297 (ACS Chemical Neuroscience, 2021).
# Entries after “also recorded” stand apart in the source; their conditions may differ.
# Tests used:
# HepG2 cells = assay: HepG2 hepatoma cell-based hepatotoxicity assay (MTS); details: 72 h of incubation
# Description: To investigate the safety of compounds 2RS,4RS-39c, 50a, and 56a, a HepG2 hepatoma cell-based hepatotoxicity assay was used. Compounds were tested at six concentrations (0.1–100 μM).
# (§1) Hepatotoxicity and cytotoxicity were estimated according to previously described protocols[62] using the hepatoma HepG2 (ATCC HB-8065) and human embryonic kidney HEK-293 (ATCC CRL1573) cell lines, respectively. In brief, cells were seeded in 96-well plates at a density of 0.7 × 10^4 and cultured at 37 °C in an atmosphere containing 5% CO2. Next, the compounds were added and investigated in quadruplicate at concentrations ranging from 0.1 to 100 μM for 72 h. The antiproliferative drug DX was used as the reference. The CellTiter 96 AQueous nonradioactive cell proliferation assay (MTS) purchased from Promega (Madison, WI, USA) was used for the determination of cell viability. The absorbance at 492 nm was measured using an EnSpire microplate reader (PerkinElmer, Waltham, MA, USA).
# HEK-293 cells = assay: HEK-293 cytotoxicity assay (MTS); assay type: cell-based, human; details: for concentration with significant (p < 0.0001) decrease in HEK-293 cell viability: 72 h of incubation; for concentration of observed antiproliferative effects: summary of HepG2 and HEK-293 assays
# Description: Subsequently, a similar study was performed with the HEK-293 cell line.
# as §1
# mGAT4 = molecular target: T1, mGAT4 (Mus musculus, UniProt P31650); assay: [3H]GABA uptake assay in HEK-293 cells stably expressing mGAT4; assay type: cell-based; details: [3H]GABA uptake; read-out: pIC50 ± SEM mGAT4 (converted)
# T1 construct: expressed in transfected cells; host or cells: HEK-293
# T1 sequence (P31650 1-627): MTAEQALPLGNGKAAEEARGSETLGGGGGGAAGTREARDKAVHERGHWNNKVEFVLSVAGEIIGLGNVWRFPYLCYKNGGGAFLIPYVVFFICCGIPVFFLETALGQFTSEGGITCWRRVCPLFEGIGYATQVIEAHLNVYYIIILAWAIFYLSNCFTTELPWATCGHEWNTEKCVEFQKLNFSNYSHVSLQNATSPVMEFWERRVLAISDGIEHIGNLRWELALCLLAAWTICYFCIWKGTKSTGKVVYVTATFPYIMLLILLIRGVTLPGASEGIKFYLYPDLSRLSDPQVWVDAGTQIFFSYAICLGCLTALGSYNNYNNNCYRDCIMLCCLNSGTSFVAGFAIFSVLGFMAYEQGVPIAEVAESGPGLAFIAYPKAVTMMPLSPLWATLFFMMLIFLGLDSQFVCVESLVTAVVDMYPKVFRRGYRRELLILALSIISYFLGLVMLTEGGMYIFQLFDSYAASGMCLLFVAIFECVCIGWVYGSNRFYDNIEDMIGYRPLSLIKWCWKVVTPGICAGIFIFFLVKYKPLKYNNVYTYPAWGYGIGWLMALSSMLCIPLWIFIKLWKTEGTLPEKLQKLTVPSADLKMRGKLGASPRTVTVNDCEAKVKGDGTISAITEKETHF
# paclitaxel-treated mice = assay: paclitaxel-induced peripheral neuropathy, tactile allodynia (von Frey test); assay type: in vivo, mouse
# Description: (§2) Before the in vivo tests, the test compounds were suspended in 1% Tween 80 (Baxter, Poland). The compounds were then administered intraperitoneally. […] The test compounds were administered only once daily on days 1 and 7 of oxaliplatin- or paclitaxel-induced neuropathy. In STZ-treated mice, test compounds were administered 21 days after STZ injection. Control mice used in oxaliplatin and paclitaxel NP models were injected with an appropriate amount of vehicle (0.9% saline). Oxaliplatin was purchased from Activate Scientific GmbH (Germany). Paclitaxel and STZ were purchased from Sigma-Aldrich (Poland).
# Doses of both paclitaxel and STZ used for the induction of neuropathy were selected based on our previous research.[66],[67] To induce neuropathy, paclitaxel was used at a dose of 18 mg/kg. It was prepared by dissolving in ethanol (100% (v/v); Polskie Odczynniki Chemiczne, Gliwice, Poland) at 10% of the final desired volume and vortexed for 2 min. An equal volume of Cremophor EL (10% of the final volume) was then added, and the mixture was vortexed for the next 10 min. Prior to injection, ice-cold physiological saline (80% of the final volume) was added to make up a final volume and the solution was maintained on ice during dosing.[66] To induce type I diabetes, mice were intraperitoneally injected with STZ (a single injection of STZ, 200 mg/kg) dissolved in 0.1 N citrate buffer. Age-matched control mice received an equal volume of citrate buffer. Blood glucose level was measured 1 day before (referred to as “day 0”) and repeatedly 1, 2, and 3 weeks after STZ injection using a blood glucose monitoring system (Accu-Chek Active, Roche, France). Blood samples for measurement of glucose concentration were obtained from the tail vein of the mice. The animals were considered as diabetic when their blood glucose concentration exceeded 300 mg/dL,[68] and only these mice (diabetic mice) were used in subsequent pain tests.[67]
# The ability of the test compounds to attenuate tactile allodynia caused by oxaliplatin, paclitaxel, and STZ was assessed using the von Frey test. For this purpose, 3 h after oxaliplatin or paclitaxel and 21 days after STZ injection, the predrug paw withdrawal threshold was measured for each mouse. Then, the test compounds were administered, and 1 h later, the postdrug paw withdrawal threshold was collected for each animal. This part of the experiment aimed to establish the effect of treatment on early phase (acute) pain hypersensitivity induced by cytotoxic drugs. Additionally, in the oxaliplatin model and the paclitaxel model, to assess the effect of test compounds on late phase tactile allodynia, 7 days later, measurements of the predrug and postdrug paw withdrawal thresholds were made in a similar manner to the measurements performed during early phase neuropathy. At this stage of the experiment, there was no additional oxaliplatin/paclitaxel administration.
# An electronic von Frey unit (Bioseb, France) was used to assess the mechanical nociceptive threshold (tactile allodynia) in mice. This device has a single flexible filament that applies increasing force (from 0 to 10 g) against the plantar surface of the hind paw of each mouse. In the von Frey test, the paw withdrawal response of the animals automatically turns off the stimulus, and the mechanical pressure that evokes this response is recorded. On the day of the experiment, the mice were placed individually in test compartments with a wire mesh bottom and left there for 1 h of habituation. Subsequently, to obtain baseline values, each mouse was tested 3 times alternately in each hind paw. Then, the test compounds were administered, and 1 h later, 3 additional measurements were taken and averaged to obtain the mean postdrug values for each mouse.[69]
# STZ-treated mice = assay: diabetic STZ-induced peripheral neuropathy, heat hyperalgesia (hot plate test); assay type: in vivo, mouse; details: i.p.
# Description: as §2
# Doses of both paclitaxel and STZ used for the induction of neuropathy were selected based on our previous research.[66],[67] To induce neuropathy, paclitaxel was used at a dose of 18 mg/kg. It was prepared by dissolving in ethanol (100% (v/v); Polskie Odczynniki Chemiczne, Gliwice, Poland) at 10% of the final desired volume and vortexed for 2 min. […] Blood glucose level was measured 1 day before (referred to as “day 0”) and repeatedly 1, 2, and 3 weeks after STZ injection using a blood glucose monitoring system (Accu-Chek Active, Roche, France). […]
# Thermal (heat) nociceptive threshold was assessed in the hot plate test as previously described.[67] […] The time until the animal licked its hind paws or jumped was recorded by means of a stop-watch. […]
# [1] = day 7 after paclitaxel injection, 30 mg/kg i.p., 30 mg/kg
# [2] = day 7 after paclitaxel injection, lower dose (10 mg/kg) i.p.
# [3] = day of paclitaxel administration, 10 and 30 mg/kg i.p.
SMILES,concentration with statistically significant (p < 0.0001) decrease in HepG2 cell viability (HepG2 cells; tested 0.1–100 μM) [µM],concentration with significant (p < 0.0001) decrease in HEK-293 cell viability (HEK-293 cells) [µM],concentration of observed antiproliferative effects (HEK-293 cells) [µM],IC50 (mGAT4) [µM],"effect on mechanical nociceptive threshold, von Frey test (paclitaxel-treated mice; [1])","effect on mechanical nociceptive threshold, von Frey test (paclitaxel-treated mice; [2])","effect on mechanical nociceptive threshold, von Frey test (paclitaxel-treated mice; [3])","safety profile in HEK-293 cells (HEK-293 cells; 72 h, compared with HepG2)","effect on heat nociceptive threshold, hot plate test (STZ-treated mice)",hepatotoxicity in HepG2 cells (HepG2 cells; concentrations up to 25 μM)
"Cc1ccc(CNC(=O)[C@@H](C[C@@H](C)O)N(C)CCC=C2c3ccccc3CCc3ccccc32)cc1 (relative stereo) [Compound 2RS,4RS-39c, 2-((3-(10,11-Dihydro-5H-dibenzo[a,d][7]annulen-5-ylidene)propyl)(methyl)amino)-4-hydroxy-N-(4-methylbenzyl)pentanamide]",25,25,25,4.37,,,,,,
"CN(CCON=C(c1ccccc1)c1ccccc1)C(CCN)C(=O)NCc1ccccc1Cl (stereo not shown) [Compound 50a, 4-Amino-N-[(2-chlorophenyl)methyl]-2-[(2-{[(diphenylmethylidene)amino]oxy}ethyl)(methyl)amino]butanamide]",,,1,20.4,elevated mechanical nociceptive threshold; also recorded: able to reduce tactile allodynia,not effective,neither 50a nor 56a at doses 10 and 30 mg/kg was able to elevate the mechanical nociceptive threshold,comparable safety profile in HEK-293 and HepG2 cells,neither 50a nor 56a was effective,
"CN(CCC=C1c2ccccc2CCc2ccccc21)C(CO)C(=O)NCc1ccccc1 (stereo not shown) [Compound 56a, N-Benzyl-2-((3-(10,11-dihydro-5H-dibenzo[a,d][7]annulen-5-ylidene)propyl)(methyl)amino)-3-hydroxypropanamide]",,25,25,9.12,elevated mechanical nociceptive threshold; also recorded: able to reduce tactile allodynia,not effective,neither 50a nor 56a at doses 10 and 30 mg/kg was able to elevate the mechanical nociceptive threshold,,neither 50a nor 56a was effective,did not induce significant hepatotoxicity
